Active and inactive are the calls of the source. No cut-off for these calls is given here.
Key:
[1] = AUClast in plasma of NOD-SCID mouse model xenografted with human PC-3 cells at 25 mg/kg, IG measured upto 48 hrs by LC-MS/MS analysis; format: ADME, organism-based; design: dose 25 mg/kg, time < 48 hrs, route ig; details: po
PC-3 [2] = assay: Induction of cell cycle arrest in human PC-3 cells assessed as accumulation of cells at G2 phase at 10 uM incubated for 6 hrs by flow cytometry (reference value: 19.34 %); format: functional
PC-3 [3] = assay: Induction of apoptosis in human PC-3 cells assessed as viable cells at 10 uM incubated for 48 hrs by annexin V-FITC/PI staining based flow cytometry (reference value: 98.6 %); format: functional; details: read-out: Activity
MGC-803 [4] = assay: Induction of cell cycle arrest in human MGC-803 cells assessed as accumulation of cells at S phase at 5 uM incubated for 48 hrs by flow cytometry (reference value: 22.72 %); format: functional
PC-3 [5] = assay: Induction of apoptosis in human PC-3 cells assessed as nuclear condensation incubated for 48 hrs; format: functional, cell-based; details: dose <= 10.0 µM
MGC-803 [6] = assay: Induction of cell cycle arrest in human MGC-803 cells assessed as accumulation of cells at G2 phase at 10 uM incubated for 36 hrs by flow cytometry (reference value: 20.64 %); format: functional
MGC-803 [7] = assay: Induction of apoptosis in human MGC-803 cells assessed as viable cells at 5 uM incubated for 48 hrs by annexin V-FITC/PI staining based flow cytometry (reference value: 98 %); format: functional; details: read-out: Activity
A549 = assay: Antitumor activity against human A549 cells with low Skp2 expression assessed as cell growth inhibition incubated for 72 hrs by MTT assay; format: functional, cell-based; details: A549, 72 h
[8] = Toxicity in NOD-SCID mouse model xenografted with human MGC-803 cells assessed as drug tolerance at 10 to 50 mg/kg, IG administered once every 2 days for 21 days; format: organism-based; details: in vivo, po, 504 h, dose 10-50 mg/kg, time 21 day
[9] = AUClast in tumor of NOD-SCID mouse model xenografted with human PC-3 cells at 25 mg/kg, IG measured upto 48 hrs by LC-MS/MS analysis; format: ADME, organism-based, Neoplasm; details: in vivo, po
PC-3 [10] = assay: Induction of apoptosis in human PC-3 cells assessed as necrotic cells at 5 uM incubated for 48 hrs by annexin V-FITC/PI staining based flow cytometry (reference value: 0.14 %); format: functional
[11] = Toxicity in NOD-SCID mouse model xenografted with human PC-3 cells assessed as change in spleen histology at 10 to 50 mg/kg, IG administered once every 2 days for 21 days by H and E staining based analysis; format: organism-based; details: in vivo, po, 504 h, dose 10-50 mg/kg, time 21 day
MGC-803 [12] = assay: Induction of apoptosis in human MGC-803 cells assessed as viable cells at 10 uM incubated for 48 hrs by annexin V-FITC/PI staining based flow cytometry (reference value: 98 %); format: functional; details: read-out: Activity
[13] = Antitumor activity against human EC1 cells assessed as cell growth inhibition incubated for 72 hrs by MTT assay; format: functional, cell-based; details: EC1, 72 h
PC-3 [14] = assay: Inhibition of colony formation in human PC-3 cells at 0.5 to 2 uM incubated for 10 days by crystal violet staining based microscopy; format: functional, cell-based; details: dose 0.5-2 µM, time 10.0 day
PC-3 [15] = assay: Antitumor activity against human PC-3 cells xenografted in NOD-SCID mouse model assessed as tumor growth inhibition at 25 mg/kg, IG administered once every 2 days for 21 days relative to control; format: functional; details: PC-3, po, 504 h, time 21 day, read-out: TGI
[16] = Apparent volume of distribution in plasma of NOD-SCID mouse model xenografted with human PC-3 cells at 25 mg/kg, IG measured upto 48 hrs by LC-MS/MS analysis; format: ADME, organism-based; details: in vivo, po
[17] = Toxicity in NOD-SCID mouse model xenografted with human MGC-803 cells assessed as change in spleen histology at 10 to 50 mg/kg, IG administered once every 2 days for 21 days by H and E staining based analysis; format: organism-based; details: in vivo, po, 504 h, dose 10-50 mg/kg, time 21 day
[18] = Toxicity in NOD-SCID mouse model xenografted with human PC-3 cells assessed as change in lung histology at 10 to 50 mg/kg, IG administered once every 2 days for 21 days by H and E staining based analysis; format: organism-based; details: in vivo, po, 504 h, dose 10-50 mg/kg, time 21 day
PC-3 [19] = assay: Induction of cell cycle arrest in human PC-3 cells assessed as accumulation of cells at S phase at 10 uM incubated for 48 hrs by flow cytometry (reference value: 22.44 %); format: functional
MGC-803 [20] = assay: Induction of apoptosis in human MGC-803 cells assessed as necrotic cells at 2.5 uM incubated for 48 hrs by annexin V-FITC/PI staining based flow cytometry (reference value: 0.89 %); format: functional
PC-3 [21] = assay: Induction of cell cycle arrest in human PC-3 cells assessed as accumulation of cells at G1 phase at 10 uM incubated for 24 hrs by flow cytometry (reference value: 56.81 %); format: functional
MGC-803 [22] = assay: Induction of cell cycle arrest in human MGC-803 cells assessed as accumulation of cells at G2 phase at 5 uM incubated for 48 hrs by flow cytometry (reference value: 21.35 %); format: functional
MGC-803 [23] = assay: Induction of cell cycle arrest in human MGC-803 cells assessed as accumulation of cells at G1 phase at 5 uM incubated for 48 hrs by flow cytometry (reference value: 54.46 %); format: functional
PC-3 [24] = assay: Inhibition of cell migration in human PC-3 cells incubated for 48 hrs by wound healing assay; format: functional, cell-based; details: dose <= 2.0 µM
PC-3 [25] = assay: Upregulation of p27 level in human PC-3 cells at 10 uM incubated upto 48 hrs by Western blot analysis; format: functional, cell-based
[26] = AUC (infinity) in plasma of NOD-SCID mouse model xenografted with human PC-3 cells at 25 mg/kg, IG measured upto 48 hrs by LC-MS/MS analysis; format: ADME, organism-based; design: time < 48 hrs, dose 25 mg/kg, route ig; details: po
[27] = Toxicity in NOD-SCID mouse model xenografted with human PC-3 cells assessed as drug tolerance at 10 to 50 mg/kg, IG administered once every 2 days for 21 days; format: organism-based; details: in vivo, po, 504 h, dose 10-50 mg/kg, time 21 day
[28] = Half life in tumor of NOD-SCID mouse model xenografted with human PC-3 cells at 25 mg/kg, IG measured upto 48 hrs by LC-MS/MS analysis; format: ADME, organism-based, Neoplasm; details: po
MGC-803 [29] = assay: Antitumor activity against human MGC-803 cells overexpressing Skp2 assessed as cell growth inhibition incubated for 72 hrs by MTT assay; format: functional, cell-based; details: MGC-803, 72 h
MGC-803 [30] = assay: Antitumor activity against human MGC-803 cells xenografted in NOD-SCID mouse model assessed as p27 accumulation at 10 to 50 mg/kg, IG administered once every 2 days for 21 days by Western blot analysis; format: functional, organism-based; details: dose 10-50 mg/kg, time 21.0 day
[31] = Metabolic stability in mouse liver microsome assessed as half life at 20 umol/L preincubated for 5 mins followed by NADPH addition measured upto 60 mins by LC-MS/MS analysis; format: ADME; details: liver microsomes, dose 20 µmol/L, time < 65 min
[32] = Toxicity in NOD-SCID mouse model xenografted with human PC-3 cells assessed as change in heart histology at 10 to 50 mg/kg, IG administered once every 2 days for 21 days by H and E staining based analysis; format: organism-based; details: in vivo, po, 504 h, dose 10-50 mg/kg, time 21 day
PC-3 [33] = assay: Induction of cell cycle arrest in human PC-3 cells assessed as accumulation of cells at S phase at 10 uM incubated for 48 hrs by flow cytometry (reference value: 19.7 %); format: functional

Molecule O=C(CCl)NC1CCN(c2cnc(-c3ccccc3)c(-c3ccccc3)n2)CC1 has an AUC(0-t) at 48 h [1] of 3230 ng·h/mL, an Activity (PC-3 [2]) of 19.87% and a viability at 10 µM (PC-3 [3]) of 58.6%. For the same molecule, the Activity (MGC-803 [4]) was 35.78%, the Activity (PC-3 [5]) was “Dose-Dependent Effect” and the Activity (MGC-803 [6]) was 19.76%. For the same molecule, the viability at 5 µM (MGC-803 [7]) was 82.9%, the IC50 (A549) was 18.2 µM and the Activity [8] was “Non-Toxic”. The AUClast [9] was 2443.9 ng·h/g, the Activity (PC-3 [10]) was 5.15% and the Activity [11] was “Non-Toxic”. The viability at 10 µM (MGC-803 [12]) was 66.9%, the IC50 [13] was 7 µM and the inhibition (PC-3 [14]) was “Active”. The inhibition in vivo at 25 mg/kg (PC-3 [15]) was 71.9%, the Vz [16] was 143.3 L/kg and the Activity [17] was “Non-Toxic”. The Activity [18] was “Non-Toxic”, the Activity (PC-3 [19]) was 43.58% and the Activity (MGC-803 [20]) was 1.02%. It also gave an Activity (PC-3 [21]) of 38.62%, an Activity (MGC-803 [22]) of 18.74% and an Activity (MGC-803 [23]) of 45.12%. For the same molecule, the inhibition (PC-3 [24]) was “Dose-Dependent Effect”, the Activity (PC-3 [25]) was “Active” and the AUC(0-inf) [26] was 3550 ng·h/mL. For the same molecule, the Activity [27] was “Non-Toxic”, the half-life [28] was 12.6 h and the IC50 (MGC-803 [29]) was 7 µM. For the same molecule, the Activity (MGC-803 [30]) was “Active”, the half-life at 20 µM [31] was 0.255 h and the Activity [32] was “Non-Toxic”. It also gave an Activity (PC-3 [33]) of 44.19%.
